# Source: patent US20040166559A1, “Vectors for gene therapy” (priority 2001, published 2004)
# Where two headings read alike, the source gives them in different places.
# Columns and labels:
# [1] = system: T cell lines and primary T cells; assay: GCV sensitivity of T cell lines and primary T cells transduced with corrected or non-corrected HSV-Tk vectors; type: cell-based, human; details: inhibition of cell viability
# Source text: FIG. 18. GCV sensitivity of T cell lines and primary T cells transduced with corrected or non-corrected HSV-Tk vectors. GCV sensitivity of Hut-78 (A) and CEM (B) cell line transduced with corrected SF/Tk/mut (?) or non-corrected vector G1Tk1SVNa (◯) or SF/Tk/wt (Δ) compared to untransduced T-cell lines (▪). The data represents the inhibition of cell viability and are the mean±SD of 8 and 3 different independent experiments, for CEM and Hut-78 cell lines respectively. (C) GCV sensitivity of primary T cells transduced with corrected sc-SFCMM3 (Δ) or non corrected SFCMM3 vectors (?) compared to untransduced T cells (▪).
# Primary T cells and the T cell lines, HuT78 (ATCC TIB-161) and CEM (ATCC CRL 2265)] were transduced with G1Tk1SVNa, SF/Tk/wt, SF/Tk/mut, SFCMM3 or scSFCMM3 vectors. HSV-Tk PCR (as described in^7) was performed on transduced target cells. In addition, PCR was performed using primers which selectively amplified the deleted form of the HSV-Tk gene using a 5′ primer, which spans the truncation point [TrTk1: 5′CTCGACCAGG§GCCGTGCT. (§ denoting the junction) and the previously described RTk2 3′ primer^7. Splicing from the transduced cell lines was quantified as described.^7
# [2] = system: TK-CEM sub-clones; assay: Ganciclovir cytotoxic assay (3H-thymidine incorporation); type: cell-based, human; details: for IC50: Homo sapiens
# Description: Cells were incubated for 4 days in the presence of increasing concentration of GCV (range from 0.05 to 12.5 μg/mL). Cell proliferation was measured by the incorporation of ^3H— thymidine into the cell DNA. Results are expressed as percentage of incorporated ^3H-thymidine at each GCV concentration respect to the incorporation obtained in the absence of GCV. (♦) non-transduced CEM cells and (▪) SFCMM 3 transduced TK-CEM sub-clones.
# Ganciclovir Cytotoxic Assay
# A total of 2×10^4 cells/well were seeded into a 96-well plate in 100 μL of medium. Cells were cultured for 4 days with increasing concentrations (from 0.05 to 12.5 μg/mL) of GCV (Cymevene®, Hoffman-La Roche A G, Germany). Afterwards, 1 μCi/well of tritiated thymidine (methyl ^3H-thymidine, TRA.120, 1.0 MBq/mL, Amersham International, England) was added 18 h. before harvesting the cell DNA in a cell harvester (Wallac, Gaitherburg, Md.). The incorporation of ^3H-thymidine into the DNA was measured in a β-scintillation counter (Wallac 1410, aitherburg, Md.). All GCV concentrations were tested in triplicate esults are expressed as percentage of incorporated ^3H-thymidine at each GCV concentration with respect to the incorporation obtained in the absence of GCV.
# The expression of the HSV-TK transgene m the TK-CEM sub-clones was determined by the inhibition in cell proliferation when the cells were cultured at increasing concentrations of GCV.
# [3] = system: primary T-cells; assay: GCV sensitivity of G1Tk1SvNa transduced primary T-cells following G418 selection; type: cell-based, human; details: n=12
# Description: Transduction of donor T-cells with the G1Tk1SvNa retroviral vector was as previously described (Robinet et al (1998) J. Hematother. 7, 205-215). PBMNC were cultured for 3 days with OKT3 (10 ng, Ortho) and rhIL-2 (500 U/mL, Chiron). Infection with retroviral supernatant for 24 hours was followed by G418 (800 μg/mL, Sigma) selection of transduced cells for 7 days. Dead cells were removed and the viable transduced product was cryopreserved for future use. The transduction of CEM cells with the G1Tk1SvNa vector involved identical infection conditions to those described for the SFCMM3 vector, followed by selection in G418 (800 μg/ml) for 7-14 days.
# The transduction efficiency of primary T-cells with G1Tk1SvNa prior to G418 selection, as measured by quantitative PCR for Neo^R, was 8.3±1.4% (n=12). The GCV sensitivity of these cells following G418 selection was 87±1.2% (n=12). The relative cell growth of control and transduced cells from one representative transduction/selection experiment is shown in FIG. 16.
# [4] = system: circulating transduced T-cells; assay: Clinical study: transduced donor T-cells with T cell depleted bone marrow, GCV treatment of GvHD; type: in vivo, human
# Source text: Escalating amounts of CD3^+ gene-modified cells were infused with T cell depleted bone marrow. Twelve patients with hematological malignancies received 2×10^5 (n=5), 6×10^5 (n=5) or 20×10^5 (n=2) transduced donor CD3^+ cells/kg with bone marrow from an HLA-identical sibling. Acute toxicity was not observed. […] Three patients developed acute GvHD grade≧II while 1 patient developed chronic GvHD (skin and salivary glands). […] In patients receiving GCV, blood samples for detection of gene-modified cells expressing the wild-type or truncated form of the HSV-Tk gene were harvested prior to GCV treatment and a regular two weeks intervals.
# [5] = system: transduced donor cells; details: one patient with chronic GvHD; declined from 11.9%; cited from earlier work
# [6] = patients, GCV treatment for GvHD, quantitative PCR of the NeoR gene
smiles,measurement,setting,value
Nc1nc(O)c2ncn(COC(CO)CO)c2n1 [GCV],GCV sensitivity of cells expressing the mutated HSV-Tk gene compared to populations transduced by wild-type gene,[1],only marginally increased
same,IC50,"[2]; 96 h, TK-CEM clones #6 and #10, 4 days with GCV, read-out: concentration of GCV to achieve the 50% inhibition in cell proliferation",0.25 µg/mL
same,IC50,[2]; read-out: IC50 inhibition in cell proliferation assessed by the incorporation of 3H-thymidine,0.1 µg/mL
same,cell proliferation at increasing concentrations of GCV,"[2]; TK-CEM clones #1, #2, #4, #5, #7 and #14",parallel to that obtained in the non-transduced cells
same,complete inhibition in cell proliferation,"[2]; TK-CEM clones #6 and #10, GCV increased up to 12.5 μg/mL",not completely achieved
same,GCV sensitivity,[3],87±1.2%
same,change in circulating transduced T-cells,[4]; patients receiving ganciclovir,significant rapid decrease
same,reduction of absolute number of circulating transduced T-cells,[4]; [6],76-99.5%
same,reduction of percentage of circulating transduced T-cells,[4]; [6],85-98%
same,outcome of chronic GvHD,[4]; the patient with chronic GvHD (skin and salivary glands),Long-lasting CR
same,outcome of acute GvHD,"[4]; treatment with GCV alone, three patients had acute GvHD grade ≧II",complete remission (CR) in 2 patients
same,proportion of transduced donor cells after administration of GCV,[5],2.8%
